Source: patent US11691970B2, “Pyrazolopyridinone compounds” (Janssen Pharmaceutica NV, priority 2017, dated 2023)

Tests used:
[1] = system: NIH/3T3 cells transfected with control vector; experiment: NIH/3T3 mock cell proliferation assay (counter assay, CellTiter Glo); format: cell-based; settings: 72-hr incubation, top concentration 30 μM, counter assay for general toxicity, read-out: NIH/3T3 MOCK CTG (IC50)
[2] = target: T1, human FGFR3 wild type enzyme (cytoplasmic domain) (Homo sapiens, UniProt P22607); experiment: FGFR3 wild type mobility shift assay (enzymatic assay); format: biochemical; settings: 75 μM ATP, 50 minutes at 30° C, Caliper EZ reader II
T1 construct: human FGFR3 wild type enzyme (cytoplasmic domain, from Carna Biosciences); purchased Carna Biosciences
Source text: FGFR3 Wild Type Mobility Shift Assay (Enzymatic Assay)

[3] = target: T2, NIH/3T3 cells overexpressing FGFR3 WT-TACC3 fusion protein (Homo sapiens, UniProt P22607); experiment: NIH/3T3 FGFR3 WT-TACC3 cell proliferation assay (CellTiter Glo); format: cell-based; settings: 72-hr incubation, top concentration 10 μM, read-out: NIH/3T3 FGFR3 WT-TACC3 CTG (IC50)
T2 construct: NIH/3T3 FGFR3 WT-TACC3 CTG (IC50); other: 72-hr incubation, CellTiter Glo, top concentration 10 μM; fused on or other part: Q9Y6A5 (Transforming acidic coiled-coil-containing protein 3)

[4] = system: NIH/3T3 cells overexpressing FGFR3 WT-TACC3 fusion protein; experiment: NIH/3T3 FGFR3 WT-TACC3 cellular phospho-ERK assay (in vitro PD assay); format: cell-based; settings: Mus musculus, NIH3T3; 1-hr incubation, AlphaLISA SureFire Ultra p-ERK1/2 (Thr202/Tyr204); read-out: NIH/3T3 FGFR3 WT-TACC3 pERK (IC50)
Description: NIH/3T3 FGFR3 WT-TACC3 Cellular Phospho-ERK Assay (In Vitro PD Assay)
50 μL of cell suspension (NIH/3T3 cells overexpressing FGFR3 WT-TACC3 fusion protein) (total 10,000 cells per well in growth medium (DMEM containing 1% Glutamax, 10% FBS and 1% Pen/Strep)) was seeded in a 384-well plate. […] After 1-hr incubation at 37° C. and 5% CO2, the medium was depleted and AlphaLISA SureFire Ultra p-ERK1/2 (Thr202/Tyr204) Assay Kit (from PerkinElmer) was applied for phospho-ERK level detection according to the kit instructions.

T1 sequence (P22607 397-806 limits assumed): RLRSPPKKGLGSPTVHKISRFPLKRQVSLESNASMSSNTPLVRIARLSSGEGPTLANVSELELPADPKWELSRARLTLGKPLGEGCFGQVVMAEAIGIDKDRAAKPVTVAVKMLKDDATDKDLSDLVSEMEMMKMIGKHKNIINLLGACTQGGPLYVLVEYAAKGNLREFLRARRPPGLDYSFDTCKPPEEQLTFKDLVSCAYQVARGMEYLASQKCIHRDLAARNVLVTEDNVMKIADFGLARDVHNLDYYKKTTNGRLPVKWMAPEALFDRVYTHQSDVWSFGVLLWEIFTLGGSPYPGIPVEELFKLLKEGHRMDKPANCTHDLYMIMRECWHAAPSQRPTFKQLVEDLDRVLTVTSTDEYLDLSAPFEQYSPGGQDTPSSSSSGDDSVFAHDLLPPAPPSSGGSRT
T2 sequence (P22607 whole entry, change not shown, the tested form may be a part): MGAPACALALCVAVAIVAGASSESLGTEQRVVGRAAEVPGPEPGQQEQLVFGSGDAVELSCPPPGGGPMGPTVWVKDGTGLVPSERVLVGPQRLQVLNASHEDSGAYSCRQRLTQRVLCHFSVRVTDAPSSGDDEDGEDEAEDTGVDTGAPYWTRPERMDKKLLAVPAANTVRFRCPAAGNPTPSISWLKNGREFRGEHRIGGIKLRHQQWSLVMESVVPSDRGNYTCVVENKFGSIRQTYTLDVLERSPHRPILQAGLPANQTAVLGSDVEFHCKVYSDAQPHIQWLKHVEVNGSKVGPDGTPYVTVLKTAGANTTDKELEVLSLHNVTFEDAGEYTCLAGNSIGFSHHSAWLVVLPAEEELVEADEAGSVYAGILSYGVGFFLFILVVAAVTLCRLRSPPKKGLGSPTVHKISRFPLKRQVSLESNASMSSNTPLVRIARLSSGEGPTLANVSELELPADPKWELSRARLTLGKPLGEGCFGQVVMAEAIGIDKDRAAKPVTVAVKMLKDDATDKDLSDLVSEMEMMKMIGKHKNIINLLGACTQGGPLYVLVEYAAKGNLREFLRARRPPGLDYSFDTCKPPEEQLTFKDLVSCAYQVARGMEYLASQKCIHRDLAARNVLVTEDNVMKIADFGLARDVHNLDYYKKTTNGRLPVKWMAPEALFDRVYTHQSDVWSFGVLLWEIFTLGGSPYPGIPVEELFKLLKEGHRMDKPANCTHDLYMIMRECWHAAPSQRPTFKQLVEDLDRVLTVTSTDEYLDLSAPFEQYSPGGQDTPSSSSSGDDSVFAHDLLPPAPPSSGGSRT

CC(Nc1c(-c2nc3ccc(N4CCOCC4)cc3[nH]2)c(=O)[nH]c2cn(C)nc12)c1cscn1 (single isomer, unassigned) [Compound 42, (R*)-2-methyl-6-(6-morpholino-1H-benzo[d]imidazol-2-yl)-7-((1-(thiazol-4-yl)ethyl)-amino)-2H-pyrazolo[4,3-b]pyridin-5(4H)-one]
IC50 [1]: 305 nM
IC50 [2]: 18.9 nM
GI50 [3]: 8.84 nM
IC50 [4]: 2.73 nM
